Source: ChEMBL document CHEMBL4507261, “Data for DCP probe A-192621” (2021)

How the values were obtained:
[1] = target: Tumor necrosis factor (Homo sapiens) (UniProt P01375); assay: TNF-alpha (h) Eurofins-Cerep binding assay; conditions: filed as agonist, Compound concentration 10.0 uM
[2] = target: cGMP-inhibited 3',5'-cyclic phosphodiesterase 3A (Homo sapiens) (UniProt Q14432); assay: PDE3A (h) Eurofins-Cerep enzyme and uptake assay; conditions: Compound concentration 10.0 uM
[3] = target: T1, Muscarinic acetylcholine receptor M4 (Homo sapiens) (UniProt P08173); assay: M4 (h) Eurofins-Cerep binding assay; set-up: ligand concentration 0.2 nM; conditions: filed as antagonist, Compound concentration 10.0 uM
T1 sequence (whole entry): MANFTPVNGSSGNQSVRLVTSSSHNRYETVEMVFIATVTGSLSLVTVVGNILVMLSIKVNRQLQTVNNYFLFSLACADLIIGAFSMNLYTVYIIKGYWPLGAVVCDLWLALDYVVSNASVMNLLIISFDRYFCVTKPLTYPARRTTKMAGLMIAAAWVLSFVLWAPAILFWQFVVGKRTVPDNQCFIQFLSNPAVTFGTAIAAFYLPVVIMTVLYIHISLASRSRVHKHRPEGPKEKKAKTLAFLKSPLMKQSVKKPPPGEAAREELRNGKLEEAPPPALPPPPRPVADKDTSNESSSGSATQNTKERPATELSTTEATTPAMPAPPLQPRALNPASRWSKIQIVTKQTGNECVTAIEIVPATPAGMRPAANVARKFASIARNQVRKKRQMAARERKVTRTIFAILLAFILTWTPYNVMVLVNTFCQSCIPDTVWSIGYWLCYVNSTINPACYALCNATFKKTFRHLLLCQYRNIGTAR

[4] = tested on: Epidermal growth factor receptor (Homo sapiens), P00533 [UNDEFINED MUTATION]; conditions: Compound concentration 1000.0 nM
[5] = target: Serine/threonine-protein kinase NIM1 (Homo sapiens) (UniProt Q8IY84); conditions: Compound concentration 1000.0 nM
[6] = tested on: Epidermal growth factor receptor (Homo sapiens), P00533 [L858R]; conditions: Compound concentration 1000.0 nM
[7] = target: Phosphatidylinositol 4-phosphate 5-kinase type-1 gamma (Homo sapiens) (UniProt O60331); conditions: Compound concentration 1000.0 nM
[8] = target: Mitogen-activated protein kinase 6 (Homo sapiens) (UniProt Q16659); conditions: Compound concentration 1000.0 nM
[9] = target: Serine/threonine-protein kinase Nek4 (Homo sapiens) (UniProt P51957); conditions: Compound concentration 1000.0 nM
[10] = target: Ephrin type-A receptor 8 (Homo sapiens) (UniProt P29322); conditions: Compound concentration 1000.0 nM
[11] = target: Serine/threonine-protein kinase PLK1 (Homo sapiens) (UniProt P53350); conditions: Compound concentration 1000.0 nM
[12] = target: Mitogen-activated protein kinase 13 (Homo sapiens) (UniProt O15264); conditions: Compound concentration 1000.0 nM
[13] = target: Fibroblast growth factor receptor 1 (Homo sapiens) (UniProt P11362); conditions: Compound concentration 1000.0 nM
[14] = target: Macrophage colony-stimulating factor 1 receptor (Homo sapiens) (UniProt P07333); conditions: Compound concentration 1000.0 nM
[15] = tested on: Leucine-rich repeat serine/threonine-protein kinase 2 (Homo sapiens), Q5S007 [G2019S]; conditions: Compound concentration 1000.0 nM
[16] = target: Tyrosine-protein kinase JAK1 (Homo sapiens) (UniProt P23458); conditions: Compound concentration 1000.0 nM
[17] = target: Serine/threonine-protein kinase WNK3 (Homo sapiens) (UniProt Q9BYP7); conditions: Compound concentration 1000.0 nM
[18] = target: LIM domain kinase 1 (Homo sapiens) (UniProt P53667); conditions: Compound concentration 1000.0 nM
[19] = target: Serine/threonine-protein kinase 35 (Homo sapiens) (UniProt Q8TDR2); conditions: Compound concentration 1000.0 nM
[20] = target: Phosphatidylinositol 4-phosphate 3-kinase C2 domain-containing subunit beta (Homo sapiens) (UniProt O00750); conditions: Compound concentration 1000.0 nM
[21] = tested on: Mast/stem cell growth factor receptor Kit (Homo sapiens), P10721 [D816H]; conditions: Compound concentration 1000.0 nM
[22] = tested on: Receptor-type tyrosine-protein kinase FLT3 (Homo sapiens), P36888 [D835H]; conditions: Compound concentration 1000.0 nM
[23] = target: T2, Alpha-2A adrenergic receptor (Homo sapiens) (UniProt P08913); assay: Alpha2A (h) Eurofins-Cerep binding assay; conditions: filed as antagonist, Compound concentration 10.0 uM
T2 sequence (whole entry): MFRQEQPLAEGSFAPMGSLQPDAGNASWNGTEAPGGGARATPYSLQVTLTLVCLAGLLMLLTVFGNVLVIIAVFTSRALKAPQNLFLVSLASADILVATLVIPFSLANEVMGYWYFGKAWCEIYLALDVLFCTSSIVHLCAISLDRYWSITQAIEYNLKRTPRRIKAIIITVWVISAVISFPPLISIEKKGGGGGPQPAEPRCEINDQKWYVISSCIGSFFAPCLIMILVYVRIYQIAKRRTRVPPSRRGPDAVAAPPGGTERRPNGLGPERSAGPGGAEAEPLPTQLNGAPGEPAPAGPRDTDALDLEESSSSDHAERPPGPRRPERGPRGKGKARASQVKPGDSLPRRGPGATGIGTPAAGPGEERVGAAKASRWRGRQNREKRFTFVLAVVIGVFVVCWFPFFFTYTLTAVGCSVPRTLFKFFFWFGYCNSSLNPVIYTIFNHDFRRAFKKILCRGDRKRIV

[24] = target: Mitogen-activated protein kinase kinase kinase 13 (Homo sapiens) (UniProt O43283); conditions: Compound concentration 1000.0 nM
[25] = target: T3, Endothelin-1 receptor (Homo sapiens, UniProt P25101); assay: Eurofins cellular functional assay - Antagonist (EDNRA)
T3 sequence (P25101 whole entry): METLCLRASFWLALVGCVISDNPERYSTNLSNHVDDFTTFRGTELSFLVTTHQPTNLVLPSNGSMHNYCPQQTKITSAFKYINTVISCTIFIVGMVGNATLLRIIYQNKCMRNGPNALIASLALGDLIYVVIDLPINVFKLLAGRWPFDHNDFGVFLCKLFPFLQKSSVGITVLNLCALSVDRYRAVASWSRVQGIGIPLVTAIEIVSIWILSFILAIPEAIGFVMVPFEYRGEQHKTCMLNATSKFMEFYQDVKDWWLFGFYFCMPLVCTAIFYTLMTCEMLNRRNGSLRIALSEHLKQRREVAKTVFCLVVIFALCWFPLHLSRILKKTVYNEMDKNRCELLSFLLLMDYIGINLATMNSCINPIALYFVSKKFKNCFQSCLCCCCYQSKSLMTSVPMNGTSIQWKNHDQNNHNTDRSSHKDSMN

[26] = target: Mitogen-activated protein kinase kinase kinase 3 (Homo sapiens) (UniProt Q99759); conditions: Compound concentration 1000.0 nM

Chain of Mitogen-activated protein kinase kinase kinase 13 (Homo sapiens) (O43283 whole entry): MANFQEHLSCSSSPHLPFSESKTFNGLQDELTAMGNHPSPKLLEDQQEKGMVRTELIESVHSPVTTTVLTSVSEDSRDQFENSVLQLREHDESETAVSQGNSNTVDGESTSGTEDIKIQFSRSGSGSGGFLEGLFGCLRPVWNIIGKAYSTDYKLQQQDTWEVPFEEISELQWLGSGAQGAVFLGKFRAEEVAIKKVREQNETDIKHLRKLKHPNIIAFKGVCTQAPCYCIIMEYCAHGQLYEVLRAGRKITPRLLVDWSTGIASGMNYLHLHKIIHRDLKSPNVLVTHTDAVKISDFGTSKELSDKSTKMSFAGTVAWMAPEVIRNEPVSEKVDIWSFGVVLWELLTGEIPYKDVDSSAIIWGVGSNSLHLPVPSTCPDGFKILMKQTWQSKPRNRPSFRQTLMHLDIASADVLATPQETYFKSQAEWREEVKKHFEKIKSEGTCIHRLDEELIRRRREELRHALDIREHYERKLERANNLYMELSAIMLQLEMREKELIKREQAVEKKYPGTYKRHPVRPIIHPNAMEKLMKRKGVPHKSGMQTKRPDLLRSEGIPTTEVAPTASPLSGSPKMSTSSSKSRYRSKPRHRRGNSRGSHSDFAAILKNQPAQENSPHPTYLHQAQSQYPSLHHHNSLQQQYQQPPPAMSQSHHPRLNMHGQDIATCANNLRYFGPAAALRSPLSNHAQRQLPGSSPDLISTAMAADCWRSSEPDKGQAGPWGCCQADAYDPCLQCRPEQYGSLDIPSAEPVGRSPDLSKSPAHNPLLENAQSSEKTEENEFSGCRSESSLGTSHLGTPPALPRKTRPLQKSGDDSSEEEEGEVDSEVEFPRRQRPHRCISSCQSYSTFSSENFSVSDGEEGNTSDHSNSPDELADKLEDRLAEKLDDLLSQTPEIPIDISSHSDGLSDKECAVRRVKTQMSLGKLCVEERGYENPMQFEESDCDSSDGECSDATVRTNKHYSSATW
Chain of Serine/threonine-protein kinase PLK1 (Homo sapiens) (P53350 whole entry): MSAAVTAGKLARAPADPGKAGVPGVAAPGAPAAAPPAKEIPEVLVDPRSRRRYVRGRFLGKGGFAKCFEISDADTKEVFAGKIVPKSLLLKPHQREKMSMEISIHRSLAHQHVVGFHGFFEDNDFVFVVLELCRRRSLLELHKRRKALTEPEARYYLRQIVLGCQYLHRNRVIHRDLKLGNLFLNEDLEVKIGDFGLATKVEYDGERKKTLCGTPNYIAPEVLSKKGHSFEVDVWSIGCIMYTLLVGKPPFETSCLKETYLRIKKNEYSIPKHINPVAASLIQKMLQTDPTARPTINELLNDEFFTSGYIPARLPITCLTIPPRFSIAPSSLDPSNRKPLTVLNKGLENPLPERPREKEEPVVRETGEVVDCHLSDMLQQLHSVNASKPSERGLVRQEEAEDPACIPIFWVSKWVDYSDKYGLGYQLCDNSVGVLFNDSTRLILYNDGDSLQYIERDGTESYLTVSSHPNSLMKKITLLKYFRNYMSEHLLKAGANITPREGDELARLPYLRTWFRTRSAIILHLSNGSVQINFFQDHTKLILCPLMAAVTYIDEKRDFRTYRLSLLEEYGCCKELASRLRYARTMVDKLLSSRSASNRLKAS
Chain of Serine/threonine-protein kinase WNK3 (Homo sapiens) (Q9BYP7 whole entry, the tested form may be a part): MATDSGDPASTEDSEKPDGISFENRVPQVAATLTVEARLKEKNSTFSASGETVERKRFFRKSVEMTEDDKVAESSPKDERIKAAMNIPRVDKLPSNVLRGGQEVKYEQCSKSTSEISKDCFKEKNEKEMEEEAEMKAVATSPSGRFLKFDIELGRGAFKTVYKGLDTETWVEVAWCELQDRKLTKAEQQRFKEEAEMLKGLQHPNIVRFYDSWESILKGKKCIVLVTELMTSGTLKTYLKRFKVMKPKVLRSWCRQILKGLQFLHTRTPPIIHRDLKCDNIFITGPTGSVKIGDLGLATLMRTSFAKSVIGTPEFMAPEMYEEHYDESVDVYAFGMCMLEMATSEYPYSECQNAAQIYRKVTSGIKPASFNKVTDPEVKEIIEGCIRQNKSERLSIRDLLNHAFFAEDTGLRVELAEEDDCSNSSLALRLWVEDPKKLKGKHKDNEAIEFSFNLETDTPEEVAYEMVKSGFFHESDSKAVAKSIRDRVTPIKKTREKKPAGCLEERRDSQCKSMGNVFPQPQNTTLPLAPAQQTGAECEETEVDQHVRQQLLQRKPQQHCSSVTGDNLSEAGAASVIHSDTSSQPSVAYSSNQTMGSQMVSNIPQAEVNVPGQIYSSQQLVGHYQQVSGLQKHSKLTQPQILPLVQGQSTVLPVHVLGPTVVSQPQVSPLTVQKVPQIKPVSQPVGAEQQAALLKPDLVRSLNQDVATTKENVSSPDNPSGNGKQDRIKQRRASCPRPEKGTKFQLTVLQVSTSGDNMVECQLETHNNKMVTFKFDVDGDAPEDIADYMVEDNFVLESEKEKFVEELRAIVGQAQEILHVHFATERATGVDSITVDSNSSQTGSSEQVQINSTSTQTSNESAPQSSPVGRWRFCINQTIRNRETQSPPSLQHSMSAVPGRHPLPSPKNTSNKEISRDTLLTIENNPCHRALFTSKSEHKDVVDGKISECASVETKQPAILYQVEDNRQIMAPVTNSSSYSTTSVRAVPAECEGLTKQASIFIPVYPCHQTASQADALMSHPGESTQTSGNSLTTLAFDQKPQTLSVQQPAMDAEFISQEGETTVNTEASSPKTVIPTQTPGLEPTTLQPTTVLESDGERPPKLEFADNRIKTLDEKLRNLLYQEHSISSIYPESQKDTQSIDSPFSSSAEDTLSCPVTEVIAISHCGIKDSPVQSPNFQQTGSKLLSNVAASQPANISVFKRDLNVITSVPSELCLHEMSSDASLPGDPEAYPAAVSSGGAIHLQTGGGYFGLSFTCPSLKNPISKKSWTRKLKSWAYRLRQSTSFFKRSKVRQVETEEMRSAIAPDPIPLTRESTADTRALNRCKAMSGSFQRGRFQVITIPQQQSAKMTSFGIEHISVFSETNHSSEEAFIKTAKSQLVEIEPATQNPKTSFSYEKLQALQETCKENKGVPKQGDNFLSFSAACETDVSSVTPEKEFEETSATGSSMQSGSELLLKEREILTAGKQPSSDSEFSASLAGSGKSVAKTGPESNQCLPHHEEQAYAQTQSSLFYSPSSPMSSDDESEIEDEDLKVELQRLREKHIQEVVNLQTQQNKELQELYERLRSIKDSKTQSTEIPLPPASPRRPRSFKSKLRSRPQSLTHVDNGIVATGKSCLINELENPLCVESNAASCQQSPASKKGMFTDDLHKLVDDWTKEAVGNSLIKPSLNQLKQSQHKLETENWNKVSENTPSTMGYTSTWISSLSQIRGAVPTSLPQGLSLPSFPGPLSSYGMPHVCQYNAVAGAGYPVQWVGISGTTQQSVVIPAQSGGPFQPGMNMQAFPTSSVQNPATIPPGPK
Chain of Serine/threonine-protein kinase NIM1 (Homo sapiens) (Q8IY84 whole entry): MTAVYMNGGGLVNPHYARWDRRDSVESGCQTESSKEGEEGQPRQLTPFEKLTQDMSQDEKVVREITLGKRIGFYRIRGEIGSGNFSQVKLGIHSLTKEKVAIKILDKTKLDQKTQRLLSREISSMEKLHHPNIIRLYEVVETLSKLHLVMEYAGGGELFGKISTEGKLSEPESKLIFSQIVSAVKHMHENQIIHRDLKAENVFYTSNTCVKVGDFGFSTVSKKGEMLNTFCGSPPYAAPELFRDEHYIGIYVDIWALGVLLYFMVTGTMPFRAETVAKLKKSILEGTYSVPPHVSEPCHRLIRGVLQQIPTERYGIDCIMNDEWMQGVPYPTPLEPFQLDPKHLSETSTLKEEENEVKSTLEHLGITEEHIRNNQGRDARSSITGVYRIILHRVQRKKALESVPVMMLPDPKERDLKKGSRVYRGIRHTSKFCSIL
Chain of cGMP-inhibited 3',5'-cyclic phosphodiesterase 3A (Homo sapiens) (Q14432 whole entry): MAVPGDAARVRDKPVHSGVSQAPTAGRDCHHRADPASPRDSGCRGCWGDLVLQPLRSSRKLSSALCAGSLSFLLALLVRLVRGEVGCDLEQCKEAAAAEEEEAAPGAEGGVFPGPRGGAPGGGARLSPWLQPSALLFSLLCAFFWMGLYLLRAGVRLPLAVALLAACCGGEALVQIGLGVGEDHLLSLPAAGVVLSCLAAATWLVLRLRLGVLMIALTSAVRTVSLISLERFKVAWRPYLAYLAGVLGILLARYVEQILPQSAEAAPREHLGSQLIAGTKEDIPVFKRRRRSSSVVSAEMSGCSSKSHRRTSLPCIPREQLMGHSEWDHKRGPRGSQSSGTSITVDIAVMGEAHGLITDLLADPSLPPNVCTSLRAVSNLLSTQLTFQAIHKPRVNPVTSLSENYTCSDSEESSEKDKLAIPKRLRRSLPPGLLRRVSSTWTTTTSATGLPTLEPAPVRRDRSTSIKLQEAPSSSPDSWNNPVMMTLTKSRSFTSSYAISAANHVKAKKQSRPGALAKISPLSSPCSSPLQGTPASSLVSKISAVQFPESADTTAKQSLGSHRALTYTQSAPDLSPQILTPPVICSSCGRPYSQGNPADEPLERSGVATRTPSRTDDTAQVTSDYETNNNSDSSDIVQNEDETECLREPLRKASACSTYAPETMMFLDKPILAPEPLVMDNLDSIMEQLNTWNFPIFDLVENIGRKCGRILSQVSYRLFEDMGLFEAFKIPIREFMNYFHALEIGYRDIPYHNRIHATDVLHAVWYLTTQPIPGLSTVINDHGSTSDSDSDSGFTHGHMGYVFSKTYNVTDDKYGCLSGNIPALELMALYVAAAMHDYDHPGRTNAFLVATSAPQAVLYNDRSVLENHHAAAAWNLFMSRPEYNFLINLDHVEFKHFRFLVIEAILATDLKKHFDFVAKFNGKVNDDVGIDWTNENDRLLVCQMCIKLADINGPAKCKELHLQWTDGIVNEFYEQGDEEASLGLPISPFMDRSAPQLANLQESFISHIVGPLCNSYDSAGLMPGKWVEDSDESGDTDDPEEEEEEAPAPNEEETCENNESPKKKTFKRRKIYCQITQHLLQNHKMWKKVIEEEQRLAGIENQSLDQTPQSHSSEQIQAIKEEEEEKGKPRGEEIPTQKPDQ

How did the % Inhibition of Control Specific Binding (Mean n=2) [1] turn out when `CCCOc1ccc([C@H]2[C@H](C(=O)O)[C@@H](c3ccc4c(c3)OCO4)CN2CC(=O)Nc2c(CC)cccc2CC)cc1` [A-192621] was run?
The % Inhibition of Control Specific Binding (Mean n=2) was 3.4%.

And the % Inhibition of Control Values (Mean n=2) [2]?
Its % Inhibition of Control Values (Mean n=2) is 29%.

And the % Inhibition of Control Specific Binding (Mean n=2) [3]?
The % Inhibition of Control Specific Binding (Mean n=2) was -2%.

What about the residual activity [4] of the same compound?
The residual activity was 100%.

And the residual activity [5]?
Its residual activity is 78%.

And the residual activity [6]?
The residual activity was 100%.

And the residual activity [7]?
Its residual activity is 100%.

And the residual activity [8]?
Its residual activity is 92%.

What about the residual activity [9] of the same compound?
The residual activity was 71%.

What about the residual activity [10] of the same compound?
The residual activity was 98%.

What about the residual activity [11] of the same compound?
Its residual activity is 80%.

And the residual activity [12]?
The residual activity was 92%.

What about the residual activity [13] of the same compound?
The residual activity was 100%.

And the residual activity [14]?
The residual activity was 61%.

What about the residual activity [15] of the same compound?
Its residual activity is 91%.

What about the residual activity [16] of the same compound?
The residual activity was 95%.

And the residual activity [17]?
The residual activity was 90%.

What about the residual activity [18] of the same compound?
The residual activity was 100%.

What about the residual activity [19] of the same compound?
Its residual activity is 92%.

And the residual activity [20]?
The residual activity was 92%.

And the residual activity [21]?
The residual activity was 72%.

What about the residual activity [22] of the same compound?
The residual activity was 92%.

What about the % Inhibition of Control Specific Binding [23] of the same compound?
The % Inhibition of Control Specific Binding was -2.4%.

What about the residual activity [24] of the same compound?
The residual activity was 47%.

What about the IC50 [25] of the same compound?
The IC50 was 3.6 µM (not active).

And the residual activity [26]?
The residual activity was 74%.

Which % Inhibition of Control Specific Binding (Mean n=2) [1] does the source give for `CCCOc1ccc([C@@H]2[C@@H](C(=O)O)[C@H](c3ccc4c(c3)OCO4)CN2CC(=O)Nc2c(CC)cccc2CC)cc1` [A-1806262] here?
Its % Inhibition of Control Specific Binding (Mean n=2) is 1.2%.

What about the % Inhibition of Control Values (Mean n=2) [2] of the same compound?
Its % Inhibition of Control Values (Mean n=2) is 34.5%.

And the % Inhibition of Control Specific Binding (Mean n=2) [3]?
Its % Inhibition of Control Specific Binding (Mean n=2) is -1.8%.

What about the residual activity [4] of the same compound?
Its residual activity is 78%.

What about the residual activity [5] of the same compound?
Its residual activity is 81%.

And the residual activity [6]?
Its residual activity is 87%.

What about the residual activity [7] of the same compound?
The residual activity was 100%.

What about the residual activity [8] of the same compound?
Its residual activity is 59%.

And the residual activity [9]?
Its residual activity is 72%.

What about the residual activity [10] of the same compound?
The residual activity was 97%.

What about the residual activity [11] of the same compound?
The residual activity was 95%.

What about the residual activity [12] of the same compound?
The residual activity was 100%.

And the residual activity [13]?
The residual activity was 100%.

And the residual activity [14]?
The residual activity was 90%.

And the residual activity [15]?
The residual activity was 84%.

And the residual activity [16]?
Its residual activity is 100%.

What about the residual activity [17] of the same compound?
Its residual activity is 94%.

What about the residual activity [18] of the same compound?
The residual activity was 90%.

And the residual activity [19]?
Its residual activity is 98%.

What about the residual activity [20] of the same compound?
Its residual activity is 94%.

And the residual activity [21]?
The residual activity was 94%.

And the residual activity [22]?
Its residual activity is 100%.

What about the % Inhibition of Control Specific Binding (Mean n=2) [23] of the same compound?
The % Inhibition of Control Specific Binding (Mean n=2) was -7.1%.

What about the residual activity [24] of the same compound?
The residual activity was 75%.

And the IC50 [25]?
The IC50 was 1.6 µM (not active).

And the residual activity [26]?
The residual activity was 85%.
